The target of the first assay is 5-hydroxytryptamine receptor 4 (Cavia porcellus, UniProt O70528). Further: in other assays of this panel Not Active means under 50% inhibition at 10 µM.
Sequence of 5-hydroxytryptamine receptor 4 (O70528 whole entry): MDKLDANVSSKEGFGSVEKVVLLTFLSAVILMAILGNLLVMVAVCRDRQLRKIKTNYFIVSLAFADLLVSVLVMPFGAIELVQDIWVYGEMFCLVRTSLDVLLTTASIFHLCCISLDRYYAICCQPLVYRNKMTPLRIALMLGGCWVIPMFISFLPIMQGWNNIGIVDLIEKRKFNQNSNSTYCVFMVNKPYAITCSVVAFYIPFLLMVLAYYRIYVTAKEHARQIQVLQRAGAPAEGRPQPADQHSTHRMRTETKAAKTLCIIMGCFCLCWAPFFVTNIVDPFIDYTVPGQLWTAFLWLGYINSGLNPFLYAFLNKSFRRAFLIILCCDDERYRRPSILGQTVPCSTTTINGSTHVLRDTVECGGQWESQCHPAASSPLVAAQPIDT
Test: not given
Type of assay: cell membranes, Dunkin-Hartley, Striatum, Membrane.
Conditions: not given
Broadly, the IC50 is the concentration at which inhibition is half-maximal. High values mean lower potency, low ones higher potency. With `Cc1c(-c2ccccc2)oc2c(C(=O)OCCN3CCCCC3)cccc2c1=O` [FLAVOXATE], the IC50 result was “Not Active”.

In the case of `CC(=O)[C@@]1(O)CC[C@H]2[C@@H]3C[C@H](C)C4=CC(=O)C=C[C@]4(C)[C@@]3(F)[C@@H](O)C[C@@]21C` [FLUOROMETHOLONE], the IC50 entry is “Not Active”.

With `CC(=O)O[C@]1(C(C)=O)CC[C@H]2[C@@H]3C=C(Cl)C4=CC(=O)CC[C@]4(C)[C@H]3CC[C@@]21C` [CHLORMADINONE ACETATE], the IC50 entry is given as “Not Active”.

Regarding `CC(=O)OCC(=O)[C@@]1(OC(C)=O)[C@@H](C)C[C@H]2[C@@H]3C[C@H](F)C4=CC(=O)C=C[C@]4(C)[C@@]3(F)[C@@H](O)C[C@@]21C` [DIFLORASONE DIACETATE], the IC50 result is listed as “Not Active”.

As for `O=c1cc(-c2ccccc2)oc2c1ccc1ccccc12` [ALPHA-NAPHTHOFLAVONE], the IC50 result is reported as “Not Active”.

The target in another assay is T1, Glucocorticoid receptor (Homo sapiens, UniProt P04150). Further: in other assays of this panel Not Active means under 50% inhibition at 10 µM.
T1 sequence (P04150 whole entry): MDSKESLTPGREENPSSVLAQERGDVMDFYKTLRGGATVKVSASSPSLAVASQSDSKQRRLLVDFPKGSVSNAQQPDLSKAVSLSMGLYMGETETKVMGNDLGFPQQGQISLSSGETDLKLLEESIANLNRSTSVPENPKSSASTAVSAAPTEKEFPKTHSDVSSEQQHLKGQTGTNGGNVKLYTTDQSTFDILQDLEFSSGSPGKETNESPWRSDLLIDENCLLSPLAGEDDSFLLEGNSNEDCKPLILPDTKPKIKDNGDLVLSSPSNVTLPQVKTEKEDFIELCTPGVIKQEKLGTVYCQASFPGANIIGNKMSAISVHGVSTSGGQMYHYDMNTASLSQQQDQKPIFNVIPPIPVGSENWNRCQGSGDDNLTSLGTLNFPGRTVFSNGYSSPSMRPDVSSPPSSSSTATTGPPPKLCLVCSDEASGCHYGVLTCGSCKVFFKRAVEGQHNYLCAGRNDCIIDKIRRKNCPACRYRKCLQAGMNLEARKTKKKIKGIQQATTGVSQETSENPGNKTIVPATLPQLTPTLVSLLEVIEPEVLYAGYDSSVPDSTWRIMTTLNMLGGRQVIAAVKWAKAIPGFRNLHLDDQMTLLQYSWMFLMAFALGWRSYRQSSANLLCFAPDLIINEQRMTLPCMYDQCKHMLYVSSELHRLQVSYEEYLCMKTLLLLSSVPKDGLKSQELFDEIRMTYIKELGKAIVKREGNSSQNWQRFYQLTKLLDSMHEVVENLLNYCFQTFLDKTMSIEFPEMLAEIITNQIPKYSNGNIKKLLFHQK
Briefly: biochemical.
Conditions: not given
The term Ki denotes the dissociation constant of the complex between target and ligand, obtained from inhibition or displacement. As for `CC(=O)[C@@]1(O)CC[C@H]2[C@@H]3C[C@H](C)C4=CC(=O)C=C[C@]4(C)[C@@]3(F)[C@@H](O)C[C@@]21C` [FLUOROMETHOLONE], it took 3.47 nM to reach half-maximal inhibition (IC50) and the Ki stood at 1.58 nM.

Compound `CC(=O)OCC(=O)[C@@]1(OC(C)=O)[C@@H](C)C[C@H]2[C@@H]3C[C@H](F)C4=CC(=O)C=C[C@]4(C)[C@@]3(F)[C@@H](O)C[C@@]21C` [DIFLORASONE DIACETATE] registered an IC50 of 6.4 nM and a Ki of 2.91 nM.

A further assay concerns the target T2, Amine oxidase [flavin-containing] A (Homo sapiens, UniProt P21397).
T2 sequence (P21397 whole entry): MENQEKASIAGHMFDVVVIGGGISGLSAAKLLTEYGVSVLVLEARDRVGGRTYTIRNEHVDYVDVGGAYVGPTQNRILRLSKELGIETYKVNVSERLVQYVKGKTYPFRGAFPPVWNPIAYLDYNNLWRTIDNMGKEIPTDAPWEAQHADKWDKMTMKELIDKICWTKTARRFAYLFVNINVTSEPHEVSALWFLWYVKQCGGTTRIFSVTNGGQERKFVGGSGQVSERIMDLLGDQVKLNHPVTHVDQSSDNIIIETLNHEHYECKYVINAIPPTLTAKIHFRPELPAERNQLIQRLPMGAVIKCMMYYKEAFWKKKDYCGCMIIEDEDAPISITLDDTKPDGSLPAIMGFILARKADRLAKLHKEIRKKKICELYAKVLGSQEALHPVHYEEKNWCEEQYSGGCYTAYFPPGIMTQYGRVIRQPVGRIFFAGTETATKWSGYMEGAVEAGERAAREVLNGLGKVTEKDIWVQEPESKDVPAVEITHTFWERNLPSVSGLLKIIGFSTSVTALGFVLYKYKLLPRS
As to the kind of experiment: DRUGMATRIX: Monoamine Oxidase MAO-A enzyme inhibition (substrate: Kynuramine). Details: species or system BTI-TN-5B1-4. The note with it: bti-tn-5b1-4; Not Active = under 50% inhibition at 10 µM.
Consider `Cc1c(-c2ccccc2)oc2c(C(=O)OCCN3CCCCC3)cccc2c1=O` [FLAVOXATE], for which the IC50 result is “Not Active”.

As to `CC(=O)[C@@]1(O)CC[C@H]2[C@@H]3C[C@H](C)C4=CC(=O)C=C[C@]4(C)[C@@]3(F)[C@@H](O)C[C@@]21C` [FLUOROMETHOLONE], the IC50 entry was “Not Active”.

With `CC(=O)O[C@]1(C(C)=O)CC[C@H]2[C@@H]3C=C(Cl)C4=CC(=O)CC[C@]4(C)[C@H]3CC[C@@]21C` [CHLORMADINONE ACETATE], the IC50 result was “Not Active”.

As to `CC(=O)OCC(=O)[C@@]1(OC(C)=O)[C@@H](C)C[C@H]2[C@@H]3C[C@H](F)C4=CC(=O)C=C[C@]4(C)[C@@]3(F)[C@@H](O)C[C@@]21C` [DIFLORASONE DIACETATE], the IC50 result is given as “Not Active”.

Take `O=c1cc(-c2ccccc2)oc2c1ccc1ccccc12` [ALPHA-NAPHTHOFLAVONE]: the IC50 result was “Not Active”.

Test system in the next assay: not listed separately
Briefly: DRUGMATRIX: Imidazoline I2, Central radioligand binding (ligand: [3H] Idazoxan). Type of assay: cell membranes, Rattus norvegicus, Wistar, Cerebral cortex, Membrane. The note with it: Not Active = under 50% inhibition at 10 µM.
Turning to `Cc1c(-c2ccccc2)oc2c(C(=O)OCCN3CCCCC3)cccc2c1=O` [FLAVOXATE], the IC50 entry is given as “Not Active” and the inhibition constant (Ki) result is “Not Active”.

Take `CC(=O)[C@@]1(O)CC[C@H]2[C@@H]3C[C@H](C)C4=CC(=O)C=C[C@]4(C)[C@@]3(F)[C@@H](O)C[C@@]21C` [FLUOROMETHOLONE]: the IC50 entry is “Not Active” and the Ki result was “Not Active”.

For the compound `CC(=O)O[C@]1(C(C)=O)CC[C@H]2[C@@H]3C=C(Cl)C4=CC(=O)CC[C@]4(C)[C@H]3CC[C@@]21C` [CHLORMADINONE ACETATE], the IC50 entry was “Not Active” and the Ki entry is recorded as “Not Active”.

Turning to `CC(=O)OCC(=O)[C@@]1(OC(C)=O)[C@@H](C)C[C@H]2[C@@H]3C[C@H](F)C4=CC(=O)C=C[C@]4(C)[C@@]3(F)[C@@H](O)C[C@@]21C` [DIFLORASONE DIACETATE], the IC50 result is “Not Active” and the Ki entry is listed as “Not Active”.

For the compound `O=c1cc(-c2ccccc2)oc2c1ccc1ccccc12` [ALPHA-NAPHTHOFLAVONE], the IC50 entry is recorded as “Not Active” and the Ki entry is “Not Active”.

Another assay deals with Voltage-gated inwardly rectifying potassium channel KCNH2 (Homo sapiens, UniProt Q12809).
Sequence of Voltage-gated inwardly rectifying potassium channel KCNH2 (Q12809 whole entry): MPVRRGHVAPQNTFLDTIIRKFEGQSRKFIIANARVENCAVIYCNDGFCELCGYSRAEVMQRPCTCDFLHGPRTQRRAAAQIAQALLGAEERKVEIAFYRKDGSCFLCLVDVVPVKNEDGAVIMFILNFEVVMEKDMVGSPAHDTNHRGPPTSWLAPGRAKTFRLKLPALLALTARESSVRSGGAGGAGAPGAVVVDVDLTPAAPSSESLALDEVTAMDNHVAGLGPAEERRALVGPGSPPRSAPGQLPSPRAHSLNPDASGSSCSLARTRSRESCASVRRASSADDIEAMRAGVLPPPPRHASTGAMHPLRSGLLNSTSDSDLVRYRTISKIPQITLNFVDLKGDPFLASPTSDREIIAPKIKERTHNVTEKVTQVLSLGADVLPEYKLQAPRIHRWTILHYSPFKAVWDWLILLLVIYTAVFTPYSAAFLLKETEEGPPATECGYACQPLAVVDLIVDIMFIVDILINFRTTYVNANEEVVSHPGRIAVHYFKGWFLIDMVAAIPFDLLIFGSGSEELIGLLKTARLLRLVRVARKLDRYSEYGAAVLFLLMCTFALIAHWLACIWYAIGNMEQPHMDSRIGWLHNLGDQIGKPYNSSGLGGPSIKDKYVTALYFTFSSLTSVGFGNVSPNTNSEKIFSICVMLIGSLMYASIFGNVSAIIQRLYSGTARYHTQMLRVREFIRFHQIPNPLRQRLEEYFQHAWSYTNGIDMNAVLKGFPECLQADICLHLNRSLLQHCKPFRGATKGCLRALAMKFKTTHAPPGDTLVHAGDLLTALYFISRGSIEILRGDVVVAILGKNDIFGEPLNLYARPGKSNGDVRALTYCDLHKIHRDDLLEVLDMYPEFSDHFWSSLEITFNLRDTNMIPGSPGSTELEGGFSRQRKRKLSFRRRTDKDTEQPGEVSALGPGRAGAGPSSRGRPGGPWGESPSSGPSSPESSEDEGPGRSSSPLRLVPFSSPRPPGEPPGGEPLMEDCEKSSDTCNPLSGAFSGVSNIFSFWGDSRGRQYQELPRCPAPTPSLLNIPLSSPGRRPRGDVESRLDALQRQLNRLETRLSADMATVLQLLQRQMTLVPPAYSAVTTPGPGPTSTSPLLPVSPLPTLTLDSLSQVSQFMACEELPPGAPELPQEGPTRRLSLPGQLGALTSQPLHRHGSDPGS
Test: not given
Conditions: not given
Consider `Cc1c(-c2ccccc2)oc2c(C(=O)OCCN3CCCCC3)cccc2c1=O` [FLAVOXATE], for which the IC50 came out at 24100 nM and the Ki is 19800 nM.

Test system in a further assay: not listed separately
Briefly: DRUGMATRIX: Tumor Necrosis Factor (TNF), Non-Selective radioligand binding (ligand: [125I] TNF-alpha). Format: cell membranes, Membrane. The note with it: u-937; Not Active = under 50% inhibition at 10 µM.
Turning to `Cc1c(-c2ccccc2)oc2c(C(=O)OCCN3CCCCC3)cccc2c1=O` [FLAVOXATE], the IC50 entry is given as “Not Active” and the Ki result was “Not Active”.

As for `CC(=O)[C@@]1(O)CC[C@H]2[C@@H]3C[C@H](C)C4=CC(=O)C=C[C@]4(C)[C@@]3(F)[C@@H](O)C[C@@]21C` [FLUOROMETHOLONE], the IC50 entry is listed as “Not Active” and the Ki result is given as “Not Active”.

Turning to `CC(=O)O[C@]1(C(C)=O)CC[C@H]2[C@@H]3C=C(Cl)C4=CC(=O)CC[C@]4(C)[C@H]3CC[C@@]21C` [CHLORMADINONE ACETATE], the IC50 entry is given as “Not Active” and the Ki entry was “Not Active”.

Take `CC(=O)OCC(=O)[C@@]1(OC(C)=O)[C@@H](C)C[C@H]2[C@@H]3C[C@H](F)C4=CC(=O)C=C[C@]4(C)[C@@]3(F)[C@@H](O)C[C@@]21C` [DIFLORASONE DIACETATE]: the IC50 entry is listed as “Not Active” and the Ki entry is “Not Active”.

Consider `O=c1cc(-c2ccccc2)oc2c1ccc1ccccc12` [ALPHA-NAPHTHOFLAVONE], for which the IC50 result was “Not Active” and the Ki entry is listed as “Not Active”.

The target of a further assay is Cytochrome P450 2C19 (Homo sapiens, UniProt P33261). Further: in other assays of this panel Not Active means under 50% inhibition at 10 µM.
Sequence of Cytochrome P450 2C19 (P33261 whole entry): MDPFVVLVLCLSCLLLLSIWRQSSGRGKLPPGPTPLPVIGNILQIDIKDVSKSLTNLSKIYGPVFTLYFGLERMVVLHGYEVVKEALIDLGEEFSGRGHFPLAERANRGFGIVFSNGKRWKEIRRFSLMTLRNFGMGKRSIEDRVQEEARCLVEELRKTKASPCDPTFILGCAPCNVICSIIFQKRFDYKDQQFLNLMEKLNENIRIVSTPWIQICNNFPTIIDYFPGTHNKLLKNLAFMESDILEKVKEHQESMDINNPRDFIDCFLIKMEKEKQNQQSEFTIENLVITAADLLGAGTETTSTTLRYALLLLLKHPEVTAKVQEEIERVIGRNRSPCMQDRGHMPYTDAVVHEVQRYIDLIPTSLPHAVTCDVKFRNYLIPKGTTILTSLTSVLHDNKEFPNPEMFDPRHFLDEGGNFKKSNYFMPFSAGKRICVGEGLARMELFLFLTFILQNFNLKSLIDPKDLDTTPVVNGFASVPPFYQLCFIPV
Test: not given
Conditions: not given
With `CC(=O)O[C@]1(C(C)=O)CC[C@H]2[C@@H]3C=C(Cl)C4=CC(=O)CC[C@]4(C)[C@H]3CC[C@@]21C` [CHLORMADINONE ACETATE], 3000 nM corresponded to half-maximal inhibition (IC50).

For the next assay, the target named is T3, Androgen receptor (Rattus norvegicus, UniProt P15207). Further: in other assays of this panel Not Active means under 50% inhibition at 10 µM.
T3 sequence (P15207 whole entry): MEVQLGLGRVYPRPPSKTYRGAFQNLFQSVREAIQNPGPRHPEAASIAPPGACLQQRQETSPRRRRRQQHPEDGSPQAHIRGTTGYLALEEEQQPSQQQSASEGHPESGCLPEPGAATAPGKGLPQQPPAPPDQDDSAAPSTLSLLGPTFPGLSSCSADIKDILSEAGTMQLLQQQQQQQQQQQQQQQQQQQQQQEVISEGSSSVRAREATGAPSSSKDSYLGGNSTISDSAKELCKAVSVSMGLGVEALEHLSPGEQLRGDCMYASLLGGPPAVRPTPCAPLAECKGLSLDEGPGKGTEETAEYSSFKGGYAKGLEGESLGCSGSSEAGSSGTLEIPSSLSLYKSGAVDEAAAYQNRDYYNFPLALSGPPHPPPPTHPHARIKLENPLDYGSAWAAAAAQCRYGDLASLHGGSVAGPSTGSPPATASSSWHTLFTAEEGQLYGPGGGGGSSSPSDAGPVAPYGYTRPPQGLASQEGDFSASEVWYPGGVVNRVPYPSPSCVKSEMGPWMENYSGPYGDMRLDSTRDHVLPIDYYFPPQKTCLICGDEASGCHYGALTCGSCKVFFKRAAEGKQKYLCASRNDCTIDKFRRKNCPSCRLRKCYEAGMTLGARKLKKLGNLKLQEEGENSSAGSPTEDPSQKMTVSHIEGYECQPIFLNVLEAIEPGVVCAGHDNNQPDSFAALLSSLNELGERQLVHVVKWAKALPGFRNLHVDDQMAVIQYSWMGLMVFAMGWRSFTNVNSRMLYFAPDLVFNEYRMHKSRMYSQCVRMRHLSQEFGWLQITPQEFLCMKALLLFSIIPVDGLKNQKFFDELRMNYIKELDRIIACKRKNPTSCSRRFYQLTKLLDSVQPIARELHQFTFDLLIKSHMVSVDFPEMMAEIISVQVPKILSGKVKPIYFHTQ
Test: not given
Conditions: not given
In the case of `O=c1cc(-c2ccccc2)oc2c1ccc1ccccc12` [ALPHA-NAPHTHOFLAVONE], the IC50 entry is “Not Active”.

(Values after ChEMBL document CHEMBL1909046, “DrugMatrix in vitro pharmacology data”.)
